Assay results as given in US20240368127A1, “HSD17B13 INHIBITORS AND USES THEREOF” (FL2022-001, Inc., priority 2021, published 2024).

Target: T1, Recombinant human HSD17B13 enzyme (Homo sapiens, UniProt Q7Z5P4)
T1 sequence (Q7Z5P4 20-300): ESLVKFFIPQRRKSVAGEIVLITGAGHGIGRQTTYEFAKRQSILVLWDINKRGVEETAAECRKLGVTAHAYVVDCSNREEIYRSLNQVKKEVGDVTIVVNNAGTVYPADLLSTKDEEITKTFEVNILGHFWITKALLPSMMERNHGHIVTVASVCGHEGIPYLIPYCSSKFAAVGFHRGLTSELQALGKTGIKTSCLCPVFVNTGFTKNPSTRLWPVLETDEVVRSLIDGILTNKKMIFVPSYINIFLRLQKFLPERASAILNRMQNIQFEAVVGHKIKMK
Test: HSD17b13 NAD(P)H-Glo biochemical assay
Settings: 50 μM estradiol, 1 mM NAD+, 37° C. for 3 hours; read-out: HSD17β13 IC50
Method in brief: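 Enzyme preincubated with inhibitor 20 min at RT in 20 mM Tris pH7.4, 0.002% Tween-20, 0.02% BSA, then reacted 3 h at 37° C with 50 μM estradiol and 1 mM NAD+ (final). NADH formation read by NAD(P)H-Glo luminescence after 1 h at RT.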

Row | SMILES | IC50
1 | Cn1nc(-c2cc(C(F)(F)F)c(F)c(O)c2F)c2cnc(N3CCC[C@@H]3Cc3ccccc3)nc21 [Compound 5.30, (R)-3-(6-(2-Benzylpyrrolidin-1-yl)-1-methyl-1H-pyrazolo[3,4-d]pyrimidin-3-yl)-2,6-difluoro-5-(trifluoromethyl)phenol] | ≤ 100 nM
2 | Cc1nn(-c2ncc(Cl)c(O)c2F)c2cnc(N3CCN(S(C)(=O)=O)C[C@H]3Cc3ccccc3)cc12 [Compound 2.17, (R)-2-(5-(2-Benzyl-4-(methylsulfonyl)piperazin-1-yl)-3-methyl-1H-pyrazolo[3,4-c]pyridin-1-yl)-5-chloro-3-fluoropyridin-4-ol] | 100 to 1000 nM
3 | Oc1c(F)cc2nnn(-c3ccc(N4CCO[C@@H](Cc5ccccc5)C4)cc3)c2c1F [Compound 1.04, (S)-1-(4-(2-Benzylmorpholino)phenyl)-5,7-difluoro-1H-benzo[d][1,2,3]triazol-6-ol] | 100 to 1000 nM
4 | CS(=O)(=O)N1CCN(c2ccc(-n3nnc4cc(F)c(O)c(F)c43)cc2)[C@@H](Cc2ccccc2)C1 [Compound 1.01, (S)-1-(4-(2-Benzyl-4-(methylsulfonyl)piperazin-1-yl)phenyl)-5,7-difluoro-1H-benzo[d][1,2,3]triazol-6-ol] | 100 to 1000 nM
5 | Cc1nn(-c2cc(C(F)(F)F)c(F)c(O)c2F)c2cc(Cl)c(N3CCN(S(C)(=O)=O)C[C@H]3Cc3ccccc3)nc12 [Compound 2.34, (R)-3-(5-(2-Benzyl-4-(methylsulfonyl)piperazin-1-yl)-6-chloro-3-methyl-1H-pyrazolo[4,3-b]pyridin-1-yl)-2,6-difluoro-5-(trifluoromethyl)phenol] | ≤ 100 nM
6 | CNc1nn(-c2cc(C(F)(F)F)c(F)c(O)c2F)c2ccc(N3CCN(S(C)(=O)=O)C[C@H]3Cc3ccccc3)cc12 [Compound 2.14, (R)-3-(5-(2-Benzyl-4-(methylsulfonyl)piperazin-1-yl)-3-(methylamino)-1H-indazol-1-yl)-2,6-difluoro-5-(trifluoromethyl)phenol] | ≤ 100 nM
7 | Oc1c(F)cc2nnn(-c3ccc(N4CCC(Cc5ccccc5)CC4)cc3)c2c1F [Compound 1.08, 1-(4-(4-Benzylpiperidin-1-yl)phenyl)-5,7-difluoro-1H-benzo[d][1,2,3]triazol-6-ol] | ≤ 100 nM
8 | CN(C)C(=O)N1CCN(c2ncc3c(-c4cc(C(F)(F)F)c(F)c(O)c4F)nn(C)c3n2)[C@H](Cc2ccccc2)C1 [Compound 6.01, (R)-3-Benzyl-4-(3-(2,4-difluoro-3-hydroxy-5-(trifluoromethyl)phenyl)-1-methyl-1H-pyrazolo[3,4-d]pyrimidin-6-yl)-N,N-dimethylpiperazine-1-carboxamide] | ≤ 100 nM
9 | CC(C)CC1COCCN1c1ncc2c(-c3cc(C(F)(F)F)c(F)c(O)c3F)nn(C)c2n1 (stereo not shown) [Compound 5.35, 2,6-Difluoro-3-(6-(3-isobutylmorpholino)-1-methyl-1H-pyrazolo[3,4-d]pyrimidin-3-yl)-5-(trifluoromethyl)phenol] | ≤ 100 nM
10 | CN(C)C(=O)N1CCN(c2ncc3c(-c4cc(C(F)(F)F)c(F)c(O)c4F)nn(C)c3n2)C[C@@H]1Cc1ccccc1 [Compound 6.07, (S)-2-Benzyl-4-(3-(2,4-difluoro-3-hydroxy-5-(trifluoromethyl)phenyl)-1-methyl-1H-pyrazolo[3,4-d]pyrimidin-6-yl)-N,N-dimethylpiperazine-1-carboxamide] | 100 to 1000 nM
11 | Oc1c(F)cc2nnn(-c3ccc(N4CC[C@H](Cc5ccccc5)C4)cc3)c2c1F [Compound 1.07, (S)-1-(4-(3-Benzylpyrrolidin-1-yl)phenyl)-5,7-difluoro-1H-benzo[d][1,2,3]triazol-6-ol] | ≤ 100 nM
12 | Cn1nc(-c2cc(C(F)(F)F)c(F)c(O)c2F)c2cnc(N3CCOCC3CN3CCCC3)nc21 (stereo not shown) [Compound 5.29, 2,6-Difluoro-3-(1-methyl-6-(3-(pyrrolidin-1-ylmethyl)morpholino)-1H-pyrazolo[3,4-d]pyrimidin-3-yl)-5-(trifluoromethyl)phenol] | 100 to 1000 nM
13 | CS(=O)(=O)N1CCN(c2ncc3c(cnn3-c3cc(C(F)(F)F)c(F)c(O)c3F)n2)[C@H](Cc2ccccc2)C1 [Compound 2.09, (R)-3-(5-(2-Benzyl-4-(methylsulfonyl)piperazin-1-yl)-1H-pyrazolo[4,3-d]pyrimidin-1-yl)-2,6-difluoro-5-(trifluoromethyl)phenol] | ≤ 100 nM
14 | CS(=O)(=O)N1CCN(c2ccc(-n3nnc4cc(F)c(O)c(F)c43)cc2)C[C@H]1Cc1ccccc1 [Compound 1.03, (R)-1-(4-(3-Benzyl-4-(methylsulfonyl)piperazin-1-yl)phenyl)-5,7-difluoro-1H-benzo[d][1,2,3]triazol-6-ol] | ≤ 100 nM
15 | CS(=O)(=O)N1CCN(c2ncc3c(-c4cc(C(F)(F)F)c(F)c(O)c4F)n[nH]c3n2)[C@H](Cc2ccccc2)C1 [Compound 5.18, (R)-3-(6-(2-Benzyl-4-(methylsulfonyl)piperazin-1-yl)-1H-pyrazolo[3,4-d]pyrimidin-3-yl)-2,6-difluoro-5-(trifluoromethyl)phenol] | ≤ 100 nM
16 | CN1CCN(c2ncc3c(-c4cc(C(F)(F)F)c(F)c(O)c4F)nn(C)c3n2)CC1Cc1ccccc1 (stereo not shown) [Compound 5.07, 3-(6-(3-Benzyl-4-methylpiperazin-1-yl)-1-methyl-1H-pyrazolo[3,4-d]pyrimidin-3-yl)-2,6-difluoro-5-(trifluoromethyl)phenol] | ≤ 100 nM

More lines, now with the values ahead:

Row | IC50 | SMILES
17 | ≤ 100 nM | Cn1nc(-c2cc(C(F)(F)F)c(F)c(O)c2F)c2cnc(N3CCOC[C@H]3C(=O)N3CCCCC3)nc21 [Compound 11.26, (S)-(4-(3-(2,4-Difluoro-3-hydroxy-5-(trifluoromethyl)phenyl)-1-methyl-1H-pyrazolo[3,4-d]pyrimidin-6-yl)morpholin-3-yl)(piperidin-1-yl)methanone]
18 | ≤ 100 nM | Cn1nc(-c2cc(C(F)(F)F)c(F)c(O)c2F)c2cnc(N3CCN(C(N)=O)CC3CC3CC3)nc21 (stereo not shown) [Compound 11.28, 3-(Cyclopropylmethyl)-4-(3-(2,4-difluoro-3-hydroxy-5-(trifluoromethyl)phenyl)-1-methyl-1H-pyrazolo[3,4-d]pyrimidin-6-yl)piperazine-1-carboxamide]
19 | ≤ 100 nM | C#Cc1cc(-c2nn(C)c3nc(N4CCN(S(C)(=O)=O)C[C@H]4Cc4ccccc4)ncc23)c(F)c(O)c1F [Compound 11.17, (R)-3-(6-(2-Benzyl-4-(methylsulfonyl)piperazin-1-yl)-1-methyl-1H-pyrazolo[3,4-d]pyrimidin-3-yl)-5-ethynyl-2,6-difluorophenol]
20 | ≤ 100 nM | Cn1nc(-c2cc(C(F)(F)F)c(F)c(O)c2F)c2cnc(N3CCO[C@@H](Cc4cccc(C#N)c4)C3)nc21 [Compound 12.03, (S)-3-((4-(3-(2,4-Difluoro-3-hydroxy-5-(trifluoromethyl)phenyl)-1-methyl-1H-pyrazolo[3,4-d]pyrimidin-6-yl)morpholin-2-yl)methyl)benzonitrile]
21 | ≤ 100 nM | Cn1nc(-c2cc(C(F)(F)F)c(F)c(O)c2F)c2cnc(N3CCO[C@@H](Cc4cccc(S(N)(=O)=O)c4)C3)nc21 [Compound 12.06, (S)-3-((4-(3-(2,4-Difluoro-3-hydroxy-5-(trifluoromethyl)phenyl)-1-methyl-1H-pyrazolo[3,4-d]pyrimidin-6-yl)morpholin-2-yl)methyl)benzenesulfonamide]
22 | ≤ 100 nM | Cn1nc(-c2cc(C(F)(F)F)c(F)c(O)c2F)c2cnc(N3CCN(S(C)(=O)=O)CC3CC3CC3)nc21 (stereo not shown) [Compound 11.13, 3-(6-(2-(Cyclopropylmethyl)-4-(methylsulfonyl)piperazin-1-yl)-1-methyl-1H-pyrazolo[3,4-d]pyrimidin-3-yl)-2,6-difluoro-5-(trifluoromethyl)phenol]
23 | ≤ 100 nM | Cn1nc(-c2cc(C(F)(F)F)c(F)c(O)c2F)c2cnc(N3CCN(S(C)(=O)=O)C[C@@H]3CC3CCCCC3)nc21 (single isomer, unassigned) [Compound 15.01]
24 | ≤ 100 nM | Cn1nc(-c2c(C#N)cc(F)c(O)c2F)c2cnc(N3CCN(S(C)(=O)=O)C[C@H]3Cc3ccccc3)nc21 [Compound 11.16, 2-(6-((R)-2-Benzyl-4-(methylsulfonyl)piperazin-1-yl)-1-methyl-1H-pyrazolo[3,4-d]pyrimidin-3-yl)-3,5-difluoro-4-hydroxybenzonitrile]
25 | ≤ 100 nM | Cn1nc(-c2cc(C(F)(F)F)c(F)c(O)c2F)c2cnc(N3CCO[C@@H](Cc4ccc(C(N)=O)cc4)C3)nc21 [Compound 12.04, (S)-4-((4-(3-(2,4-Difluoro-3-hydroxy-5-(trifluoromethyl)phenyl)-1-methyl-1H-pyrazolo[3,4-d]pyrimidin-6-yl)morpholin-2-yl)methyl)benzamide]
26 | ≤ 100 nM | Cn1nc(-c2cc(Cl)c(F)c(O)c2F)c2cnc(N3CCN(S(C)(=O)=O)C[C@H]3Cc3ccccc3)nc21 [Compound 11.12, (R)-3-(6-(2-Benzyl-4-(methylsulfonyl)piperazin-1-yl)-1-methyl-1H-pyrazolo[3,4-d]pyrimidin-3-yl)-5-chloro-2,6-difluorophenol]
27 | 1000 to 30000 nM | Cn1nc(-c2cccc(O)c2)c2cnc(N3CCN(S(C)(=O)=O)C[C@H]3Cc3ccccc3)nc21 [Compound 11.11, (R)-3-(6-(2-Benzyl-4-(methylsulfonyl)piperazin-1-yl)-1-methyl-1H-pyrazolo[3,4-d]pyrimidin-3-yl)phenol]
28 | ≤ 100 nM | CC#Cc1cc(-c2nn(C)c3nc(N4CCN(S(C)(=O)=O)C[C@H]4Cc4ccccc4)ncc23)c(F)c(O)c1F [Compound 11.18, (R)-3-(6-(2-Benzyl-4-(methylsulfonyl)piperazin-1-yl)-1-methyl-1H-pyrazolo[3,4-d]pyrimidin-3-yl)-2,6-difluoro-5-(prop-1-yn-1-yl)phenol]
